# Data taken from PMC8487611 (ACS chemical neuroscience, 2021).
# Target: α3β4 nicotinic acetylcholine receptor (mouse) (Mus musculus, UniProt Q8R493+Q8R4G9)
# Assay: two-electrode voltage clamp of Xenopus oocytes, block of ACh
# Format: cell-based
# Chain of α3β4 nicotinic acetylcholine receptor (mouse) (Q8R4G9 26-499): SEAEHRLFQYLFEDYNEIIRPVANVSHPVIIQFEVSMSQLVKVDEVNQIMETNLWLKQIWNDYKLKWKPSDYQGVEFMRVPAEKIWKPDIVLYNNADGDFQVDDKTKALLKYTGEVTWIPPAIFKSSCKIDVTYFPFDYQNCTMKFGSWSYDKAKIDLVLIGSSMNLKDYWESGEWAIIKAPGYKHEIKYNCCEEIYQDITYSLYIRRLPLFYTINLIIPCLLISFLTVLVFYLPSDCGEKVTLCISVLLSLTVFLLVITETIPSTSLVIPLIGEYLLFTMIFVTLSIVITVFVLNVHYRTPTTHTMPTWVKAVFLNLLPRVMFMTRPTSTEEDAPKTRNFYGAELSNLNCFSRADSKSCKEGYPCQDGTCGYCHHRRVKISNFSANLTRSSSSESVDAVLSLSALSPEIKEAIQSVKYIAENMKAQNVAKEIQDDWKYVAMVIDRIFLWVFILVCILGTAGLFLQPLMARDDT
# Chain of α3β4 nicotinic acetylcholine receptor (mouse) (Q8R493 21-495): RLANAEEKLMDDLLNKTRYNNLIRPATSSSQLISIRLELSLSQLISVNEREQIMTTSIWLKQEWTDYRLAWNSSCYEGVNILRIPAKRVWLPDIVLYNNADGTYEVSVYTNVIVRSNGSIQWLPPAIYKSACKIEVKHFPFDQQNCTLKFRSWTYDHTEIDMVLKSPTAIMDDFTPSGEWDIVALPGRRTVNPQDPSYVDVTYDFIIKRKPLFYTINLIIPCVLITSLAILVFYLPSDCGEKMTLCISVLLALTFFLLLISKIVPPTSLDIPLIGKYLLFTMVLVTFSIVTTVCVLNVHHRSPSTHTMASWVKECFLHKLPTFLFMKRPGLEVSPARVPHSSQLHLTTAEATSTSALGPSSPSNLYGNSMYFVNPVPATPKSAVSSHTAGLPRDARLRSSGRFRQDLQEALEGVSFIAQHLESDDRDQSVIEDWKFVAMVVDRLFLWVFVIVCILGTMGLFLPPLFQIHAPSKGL
substance,measurement,value
molleamine C [compound 3],IC50,1430 nM
